Results from patent US20230013419A1, “ANALOGUES OF 3-(5-METHYL-1,3-THIAZOL-2-YL)-N-{(1R)-1-[2-(TRIFLUORO-METHYL)PYRIMIDIN-5-YL]ETHYL}BENZAMIDE” (Bayer Aktiengesellschaft, priority 2019, published 2023).
Values after ≈ are worked out from the molar mass of the structure shown. Values joined by “and” are separate entries in the source; they are usually repeats but may differ in a detail not shown here. Equal entries are not always repeated.

Key:
[1] = In vitro metabolic stability in human liver microsomes; format: in vitro ADME; settings: for CLblood: hepatic in vivo blood clearance calculated from half-life in human liver microsomes, 1 μM, well-stirred model; for metabolic stability compared to example 11 of WO2016/091776 A1: human liver microsomes; for Fmax: maximal oral bioavailability calculated from human liver microsome clearance
Experimental: Examples were tested for its metabolic stability in human liver microsomes. Examples were measured one or more times. When measured more than once, data from metabolic stability assays represent average values or median values calculated utilizing data sets obtained from testing of one or more synthetic batch.
In vitro metabolic stability was determined by incubating a solution of test compounds in dimethylsulfoxide (DMSO) and acetonitrile at 1 μM in a suspension of liver microsomes in 100 mM phosphate buffer, pH7.4 (NaH2PO4×H2O+Na2HPO4×2H2O) and at a protein concentration of 0.5 mg/mL at 37° C. The microsomes were activated by adding a co-factor mix containing 8 mM Glucose-6-Phosphat, 4 mM MgCl2; 0.5 mM NADP and 1 IU/ml G-6-P-Dehydrogenase in phosphate buffer, pH 7.4. The metabolic assay was started shortly afterwards by adding the test compound to the incubation at a final volume of 1 mL. Organic solvent was limited to ≤0.01% dimethylsulfoxide (DMSO) and ≤1% acetonitril. During incubation, the microsomal suspensions were continuously shaken at 580 rpm and aliquots were taken at 2, 8, 16, 30, 45 and 60 min, to which equal volumes of cold methanol were immediately added. Samples were frozen at −20° C. over night, subsequently centrifuged for 15 minutes at 3000 rpm and the supernatant was analyzed with an Agilent 1200 HPLC-system with LCMS/MS detection.
The half-life of a test compound was determined from the concentration-time plot. From the half-life the intrinsic clearances were calculated. Together with the additional parameters liver blood flow, specific liver weight and microsomal protein content the hepatic in vivo blood clearance (CL) and the maximal oral bioavailability (Fmax) were calculated for the different species. The hepatic in vivo blood clearance (CLblood) and the maximal oral bioavailability (Fmax) was calculated using the following formulae: CL′intrinsic [ml/(min*kg)]=kel [1/min]/((mg protein/volume of incubation [ml])*fu,inc)*(mg protein/liver weight [g])*(specific liver weight [g liver/kg body weight]); CLblood well-stirred [L/(h*kg)]=(QH [L/(h*kg)]*fu,blood*CL′intrinsic [L/(h*kg)])/(QH [L/(h*kg)]+fu,blood*CL′intrinsic [L/(h*kg)]); Fmax=1−CLblood/QH and using the following parameter values: QH (Liver blood flow): 1.32 L/h/kg (human), 2.1 L/h/kg (dog), 4.2 L/h/kg (rat); specific liver weight: 21 g/kg (human), 39 g/kg (dog), 32 g/kg (rat); microsomal protein content: 40 mg/g. fu,inc and fu,blood is taken as 1 with fu,inc being the unbound fraction (ie the non-protein bound fraction) in the incubation experiment, and fu,blood being the unbound fraction in blood.

human P2X3 receptor = target: T1, human P2X3 receptor (Homo sapiens, UniProt P56373); assay: Cellular in vitro assay for determination of P2X3 receptor activity (CHO cells, photina luminescence, agonist alpha-beta-methylene-ATP); format: cell-based; settings: antagonist activity at human P2X3 receptors, recombinant CHO cells, alpha-beta-methylene-ATP at EC50; read-out: Target IC50
T1 construct: expressed in transfected cells; host or cells: CHO (Chinese hamster ovary) cells, stably co-transfected with mitochondrial photina
T1 sequence (P56373 1-397): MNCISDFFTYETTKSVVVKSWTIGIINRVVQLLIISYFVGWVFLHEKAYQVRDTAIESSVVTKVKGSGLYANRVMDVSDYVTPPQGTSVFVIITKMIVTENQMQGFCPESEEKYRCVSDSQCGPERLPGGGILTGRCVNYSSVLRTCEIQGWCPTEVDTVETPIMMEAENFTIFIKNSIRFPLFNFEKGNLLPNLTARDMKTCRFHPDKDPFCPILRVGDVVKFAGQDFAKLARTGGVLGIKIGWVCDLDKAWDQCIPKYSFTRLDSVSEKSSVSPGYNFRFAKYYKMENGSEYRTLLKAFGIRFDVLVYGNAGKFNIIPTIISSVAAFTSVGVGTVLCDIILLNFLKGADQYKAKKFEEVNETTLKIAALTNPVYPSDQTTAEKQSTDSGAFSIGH
Experimental: Cellular In Vitro Assay for Determination of P2X3 Receptor Activity
The determination of antagonistic activity at the P2X3 receptor of the compounds of the invention was performed by use of a recombinant cell line. These cell line derives originally from the Chinese hamster ovary (CHO) cell line (Tjio J. H.; Puck T. T., 1958, J. Exp. Med. 108: 259-271). The cell line is stably transfected with the human P2X3 receptor and a calcium-sensitive photoprotein, mitochondrial photina, which, after reconstitution with the cofactor coelenterazine, emits light in dependence of calcium binding [Bovolenta S, Foti M, Lohmer S, Corazza S., J Biomol Screen. 2007 August; 12(5):694-704]. The strength of the photina luminescence signal corresponds to the level of receptor activation upon agonist binding. An inhibitor would decrease the signal depending on its potency and concentration. Bioluminescence was detected using a suitable luminometer [Milligan G, Marshall F, Rees S, Trends in Pharmacological Sciences 17, 235-237 (1996)].
On the day before the assay, the cells are plated out in culture medium (DMEM/F12 (PAN, P04-41451), 10% FCS) in 384-well microtiter plates and kept in a cell incubator (96% humidity, 5% v/v CO2, […]). On the day of the assay medium is replaced by 2 mM Ca-tyrode buffer (20 mM HEPES, 130 mM NaCl, 5 mM KCl, 5 mM NaHCO3, 2 mM MgCl2, pH 7.4) containing 5 μg/ml coelenterazine. Plates are incubated for 3 hours at 37° C. (96% humidity, 5% v/v CO2). After incubation the test substances in various concentrations are placed for 10 minutes in the wells of the microtiter plate before the agonist alpha-beta-methylene-ATP at EC50 concentration is added. The resulting light signal is measured immediately in the luminometer.
The examples were tested in quadruples per plate and mean values were used to determine IC50 values at the human P2X3 receptors and percentage of maximal inhibition.

[2] = High throughput aqueous solubility in phosphate buffer pH 6.5; format: physicochemical; settings: for solubility at 24 h: aqueous buffer, kinetic from dmso stock, phosphate buffer pH 6.5, 1% DMSO, 24 hrs at room temperature; for solubility compared to example 11 of WO2016/091776 A1: aqueous, pH 6.5
Experimental: Examples were tested for its solubility in aqueous media (pH 6.5). Examples were synthesized one or more times in accordance with the above-described protocols. When synthesized more than once, data from solubility assays represent average values or median values calculated utilizing data sets obtained from testing of one or more synthetic batch.
The high throughput screening method to determine aqueous drug solubility is based on Thomas Onofrey and Greg Kazan, Performance and correlation of a 96-well high throughput screening method to determine aqueous drug solubility, Millipore Corporation Application Note, 2003; Lit. No. AN1731EN00.
The assay was run in a 96-well plate format. Each well was filled with an individual compound.
All pipetting steps were performed using a robot platform.
100 μl of a 10 mmolar solution of drug in DMSO were concentrated by vacuum centrifugation and resolved in 10 μl DMSO. 990 μl phosphate buffer pH 6.5 were added. The content of DMSO amounts to 1%. The multititer plate was put on a shaker and mixed for 24 hrs at room temperature. 150 μl of the suspension were transferred to a filtration plate. […] A second microtiter plate with 20 μl of a 10 mM solution of drug in DMSO served for calibration. Two concentrations ([…]) were prepared by dilution in DMSO/water 1:1 and used for calibration. Filtrate and calibration plates were quantified by HPLC-MS/MS.
Chromatographic conditions were as follows:
HPLC column: Ascentis Express C18 4.6×30 mm 2.7 μm
Mobile phase: A: Water/0.05% HCOOH • B: Acetonitrile/0.05% HCOOH • 0 min→95% A 5% B • 0.75 min→5% A 95% B • 2.75 min→5% A 95% B • 2.76 min→95% A 5% B • 3 min→95% A 5% B
The areas of sample- and calibration injections were determined by using mass spectrometry software (AB SCIEX: Discovery Quant 2.1.3. and Analyst 1.6.1). The solubility value was obtained by interpolation from the calibration curve.

CLblood [1]	Fmax [1]	IC50 (human P2X3 receptor) [nM]	solubility at 24 h [2] [µg/mL]	solubility compared to example 11 of WO2016/091776 A1 [2]	Compound	metabolic stability compared to example 11 of WO2016/091776 A1 [1]
0.017 mL/min/kg	100%	12	1190 (≈ 2330 µM)	significantly improved solubility	Cc1cnc(-c2cc(O[C@@H](CO)CC(=O)O)cc(C(=O)N[C@H](C)c3cnc(C(F)(F)F)nc3)c2)s1 [Example 3, (3R)-4-hydroxy-3-[3-(5-methyl-1,3-thiazol-2-yl)-5-({(1R)-1-[2-(trifluoromethyl)-pyrimidin-5-yl]ethyl}carbamoyl)phenoxy]butanoic acid]	significantly improved metabolic stability
0.017 mL/min/kg	100%	5.1	96.5 (≈ 194 µM)	significantly improved solubility	Cc1cnc(-c2cc(O[C@@H](CO)CCO)cc(C(=O)N[C@H](C)c3cnc(C(F)(F)F)nc3)c2)s1 [Example 2, 3-{[(2R)-1,4-dihydroxybutan-2-yl]oxy}-5-(5-methyl-1,3-thiazol-2-yl)-N-{(1R)-1-[2-(trifluoromethyl)pyrimidin-5-yl]ethyl}benzamide]	significantly improved metabolic stability
8.67 mL/min/kg and 4.5 mL/min/kg	61% and 79%	–	2.9 (≈ 6.06 µM)	–	Cc1cnc(-c2cc(O[C@@H]3CCOC3)cc(C(=O)N[C@H](C)c3cnc(C(F)(F)F)nc3)c2)s1 [example 11 of WO2016/091776 A1, 3-(5-Methyl-1,3-thiazol-2-yl)-5-[(3R)-tetrahydrofuran-3-yloxy]-N-{(1R)-1-[2-(trifluoro-methyl)pyrimidin-5-yl]ethyl}benzamide, reference compound]	–

Compound	CLblood [1]	Fmax [1]	IC50 (human P2X3 receptor) [nM]	solubility at 24 h [2] [µg/mL]	solubility compared to example 11 of WO2016/091776 A1 [2]	metabolic stability compared to example 11 of WO2016/091776 A1 [1]
{[(3R,5R)-5-Hydroxytetrahydrofuran-3-yl]oxy}-5-(5-methyl-1,3-thiazol-2-yl)-N-{(1R)-1-[2-(trifluoromethyl)pyrimidin-5-yl]ethyl}benzamide and {[(3R,5S)-5-hydroxytetrahydrofuran-3-yl]oxy}-5-(5-methyl-1,3-thiazol-2-yl)-N-{(1R)-1-[2-(trifluoromethyl)pyrimidin-5-yl]ethyl}benzamide [Example 1]	14.5 mL/min/kg	34%	20	–	–	–
